Measurements: patent EP4299736A2, “HYDROLASES AND USES THEREOF” (Vilnius University, priority 2022, dated 2024)

Test system: hydrolases SEQ ID NO: 1-41
Assay: Analysis of substrate spectrum of hydrolases (TLC, HPLC-MS, GC-MS); note: key: '+'- active; ' –' inactive towards derivative
Type: biochemical
Description: A hydrolytic activity of enzymes was analysed by thin-layer chromatography (TLC), high-performance liquid chromatography and a mass spectrometry (HPLC-MS) and Gas chromatography and a mass spectrometry (GC-MS) methods. Nucleosides, as substrates and hydrolysis reaction products, were tested by thin-layer chromatography (TLC) method and by a high-performance liquid chromatography - mass spectroscopy (HPLC-MS) method. Other reaction products were detected by Gas chromatography-Mass spectrometry (GC-MS) system. […] The conditions of the reactions are given below.
Hydrolysis products test by thin-layer chromatography (TLC) method. A hydrolytic activity was assayed in reaction mixture containing 45 mM potassium phosphate buffer, pH 7.5, 1 µl enzyme (0.1-4.6 µg/reaction) and 4 mM substrate. The total reaction mix volume was 20 µl. Reaction mixture were incubated at 30 °C temperature up to 3 h and at RT overnight. Thin-layer chromatography (TLC) was conducted on the Merck silica gel 60 F254 plates, using the chloroform and methanol (5:1) mixture of solvents.
High-performance liquid chromatography/mass spectrometry (HPLC-MS) analysis of hydrolysis reaction products. […] Mass scans were measured from m/z 10 up to m/z 500, at 350 °C interface temperature, 250 °C DL temperature, ±4,500 V interface voltage, neutral DL/Qarray, using N 2 as nebulizing and drying gas. Mass spectrometry data was acquired in both the positive and negative ionization mode. The data was analysed using the LabSolutions LCMS software. For HPLC-MS analysis, the reaction mixture consisted of 45 mM potassium phosphate buffer (pH 7.5), 2 mM substrate (from 50-100 mM stock in DMSO), and protein (-0.5-1 mg/ ml). Reaction mixture was incubated at 30 °C temperature up to 3 h and at RT overnight.
Gas chromatography-Mass spectrometry (GC-MS) analysis of hydrolysis reaction products. GC-MS analyses were performed with a Shimadzu GCMS-QP2010 Ultra Plus (Kyoto, Japan). […] Temperature program -50°C (1 min), 50°C →250 °C (25 °C/min), total run time - 15 min. The temperatures of injector, interface and ion source were 250°C.
For GC-MS analysis, the reaction mixture consisted of 45 mM potassium phosphate buffer (pH 7.5), 2.4 mM substrate (from 50-100 mM stock in DMSO), and protein (-0.5-1 mg/ ml). The total reaction mix volume was 1000 µl. The hydrolysis reaction products were extracted with ethyl acetate (3x 400 µl).

Measured: Hydrolysis of S^4-alkyl uridine derivatives

CCCSc1ccn([C@@H]2O[C@H](CO)[C@@H](O)[C@H]2O)c(=O)n1 [4-S-n-propyl-U]
+: enzyme SEQ ID No:1 | enzyme SEQ ID No:3 | enzyme SEQ ID No:4

CSc1nc(=O)n([C@@H]2O[C@H](CO)[C@@H](O)[C@H]2O)cc1F [5-F-4-S-methyl-U]
+: enzyme SEQ ID No:1 | enzyme SEQ ID No:2 | enzyme SEQ ID No:3 | enzyme SEQ ID No:4 | enzyme SEQ ID No:6 | enzyme SEQ ID No:9 | enzyme SEQ ID No:25 | enzyme SEQ ID No:26 | enzyme SEQ ID No:27 | enzyme SEQ ID No:28 | enzyme SEQ ID No:29 | enzyme SEQ ID No:30 | enzyme SEQ ID No:32 | enzyme SEQ ID No:33 | enzyme SEQ ID No:34 | enzyme SEQ ID No:35 | enzyme SEQ ID No:36 | enzyme SEQ ID No:37 | enzyme SEQ ID No:38

CC(C)CSc1ccn([C@@H]2O[C@H](CO)[C@@H](O)[C@H]2O)c(=O)n1 [4-S-iso-butyl-U]
+: enzyme SEQ ID No:1 | enzyme SEQ ID No:3 | enzyme SEQ ID No:4

O=c1nc(SCc2ccccc2)c(F)cn1[C@@H]1O[C@H](CO)[C@@H](O)[C@H]1O [5-F-4-S-benzyl-U]
+: enzyme SEQ ID No:1 | enzyme SEQ ID No:2 | enzyme SEQ ID No:3 | enzyme SEQ ID No:4 | enzyme SEQ ID No:9 | enzyme SEQ ID No:25 | enzyme SEQ ID No:30 | enzyme SEQ ID No:34 | enzyme SEQ ID No:35

CCSc1ccn([C@@H]2O[C@H](CO)[C@@H](O)[C@H]2O)c(=O)n1 [4-S-ethyl-U]
+: enzyme SEQ ID No:1 | enzyme SEQ ID No:2 | enzyme SEQ ID No:3 | enzyme SEQ ID No:4 | enzyme SEQ ID No:6 | enzyme SEQ ID No:9 | enzyme SEQ ID No:21 | enzyme SEQ ID No:25 | enzyme SEQ ID No:26 | enzyme SEQ ID No:27 | enzyme SEQ ID No:28 | enzyme SEQ ID No:29 | enzyme SEQ ID No:30 | enzyme SEQ ID No:31 | enzyme SEQ ID No:32 | enzyme SEQ ID No:33 | enzyme SEQ ID No:34 | enzyme SEQ ID No:35 | enzyme SEQ ID No:36 | enzyme SEQ ID No:37 | enzyme SEQ ID No:38 | enzyme SEQ ID No:39 | enzyme SEQ ID No:40 | enzyme SEQ ID No:41
